Entries after “also recorded” stand apart in the source; their conditions may differ.
Tests used:
[1] = system: DIPG-007 and DIPG-IV cells; assay: Annexin-PI flow cytometry apoptosis assay; assay type: cell-based, human; conditions: 48 h, vs DMSO vehicle control
Method: FIGS. 5A-5K provide that pharmacological inhibition of ERK5 triggered cell death and apoptosis in DIPG cells. […] (5C-5E).
Apoptosis was quantified using the Pacific Blue Annexin V Apoptosis Detection Kit with propidium iodide (BioLegend, San Diego, Calif. Cat #640926). Analysis was performed at the Flow Cytometry Core, Rangos Research Center, UPMC Children's Hospital of Pittsburgh.

[2] = system: MYC in DIPG-IV and SF8628 cells; assay: Western blot of phospho MYC S62 and total MYC; assay type: cell-based, human; conditions: TG02 100 nM
Method: FIGS. 6A-6H provide that ERK5 inhibition reduced MYC protein stability. (6A) Schematic of identifying differentially expressed phospho-proteins in DIPG-IV cells expressing ERK5 and ERK5 knockdown. (6B) Ratio of phospho:total protein changes in ERK5 knockdown versus ERK5 control DIPG-IV cells. […] (6D) Western blot of MYC in DIPG-IV cells treated with Dox and MG132 (10 uM). (6E) Immunoprecipitation of MYC and ERK5 followed by western blot of ERK5 and MYC. […] (6G) Western blot of DIPG cells re-transfected with constitutively active MYC S62D in presence of ERK5 loss. (6H) Cell doubling times of control and ERK5 knockdown DIPG cells and the effect of MYC S62D rescue. SF8628 cells (left) and DIPG-IV cells (right).
Cell pellets were lysed in PLC lysis buffer containing protease and phosphatase inhibitors (Roche Inc.). Protein lysates were quantified using the bicinchoninic acid (BCA) assay (Pierce Chemical Co., Rockford, Ill.). 30 μg of total protein lysate was loaded in 10% SDS-PAGE gels and electrophoresed. Proteins were transferred to PVDF membranes using a semi-dry transfer apparatus (Bio-Rad). […] Binding was detected using Chemiluminescence Reagent Plus (PerkinElmer Inc., MA, USA).

MYCN in DIPG-13p cells = assay: MYCN transcript (qRT-PCR) and protein (Western blot); assay type: cell-based, human; conditions: DIPG-13p cells (MYCN amplification)
Method: FIG. 14E provides Western blot confirming MYCN protein levels decrease in DIPG-13p cells from FIG. 14E.
Total RNA isolation was performed using an RNA extraction kit according to the manufacturer's instructions (RNeasy kit, Qiagen). cDNA was synthesized from 100 ng of total RNA using the Quantitect RT kit which included DNAse treatment (Qiagen). Quantitative real-time PCR was performed on 10 ng of cDNA template in a final volume of 20 μl using the Chromo4 Real Time PCR detector (MJ Research, a Division of Bio-Rad Laboratories Ltd) using SYBR green fluorescence. RT-PCR data was analyzed using Opticon Monitor 3.1.3 analysis software. Data analysis was done using the delta CT method with HPRT1 as a reference/control gene. Specific Primers are available in Table 4.

TYK2 = TYK2 (Homo sapiens, UniProt P29597); conditions: Source Invitrogen; 10-point titration in duplicates, done once; cited from earlier work
Fyn = Fyn (Homo sapiens, UniProt P06241); conditions: Source Millipore; 10-point titration in duplicates, done once; cited from earlier work
JAK2 = JAK2 (Homo sapiens, UniProt O60674); conditions: Source Invitrogen; 10-point titration in duplicates, done once; cited from earlier work
FLT3 = FLT3 (Homo sapiens, UniProt P36888); conditions: Source Invitrogen; 10-point titration in duplicates, done once; cited from earlier work
ASK1 = ASK1 (Homo sapiens, UniProt Q99683); conditions: cited from earlier work
CDK6 = CDK6 (Homo sapiens, UniProt Q00534); conditions: cited from earlier work
Chk1 = Chk1 (Homo sapiens, UniProt O14757); conditions: cited from earlier work
CK1α1 = CK1α1 (Homo sapiens, UniProt P48729); conditions: cited from earlier work
[3] = cited from earlier work
DYRKIB = DYRKIB (Homo sapiens, UniProt Q9Y463); conditions: cited from earlier work
IKK-β = IKK-β (Homo sapiens, UniProt O14920); conditions: cited from earlier work
InsR = InsR (Homo sapiens, UniProt P06213); conditions: cited from earlier work
PAK2 = PAK2 (Homo sapiens, UniProt Q13177); conditions: cited from earlier work
PAK3 = PAK3 (Homo sapiens, UniProt O75914); conditions: cited from earlier work
PDGFRβ = PDGFRβ (Homo sapiens, UniProt P09619); conditions: cited from earlier work
PDK1 = PDK1 (Homo sapiens, UniProt O15530); conditions: cited from earlier work
PKCε = PKCε (Homo sapiens, UniProt Q02156); conditions: cited from earlier work
PLK3 = PLK3 (Homo sapiens, UniProt Q9H4B4); conditions: cited from earlier work
TLK2 = TLK2 (Homo sapiens, UniProt Q86UE8); conditions: cited from earlier work
CYP1A2 = CYP1A2 (Homo sapiens, UniProt P05177); conditions: cited from earlier work
[4] = cited from earlier work; remark: listed apart in the source
[5] = cited from earlier work; remark: listed apart in the source

Sequence of TYK2 (P29597 whole entry): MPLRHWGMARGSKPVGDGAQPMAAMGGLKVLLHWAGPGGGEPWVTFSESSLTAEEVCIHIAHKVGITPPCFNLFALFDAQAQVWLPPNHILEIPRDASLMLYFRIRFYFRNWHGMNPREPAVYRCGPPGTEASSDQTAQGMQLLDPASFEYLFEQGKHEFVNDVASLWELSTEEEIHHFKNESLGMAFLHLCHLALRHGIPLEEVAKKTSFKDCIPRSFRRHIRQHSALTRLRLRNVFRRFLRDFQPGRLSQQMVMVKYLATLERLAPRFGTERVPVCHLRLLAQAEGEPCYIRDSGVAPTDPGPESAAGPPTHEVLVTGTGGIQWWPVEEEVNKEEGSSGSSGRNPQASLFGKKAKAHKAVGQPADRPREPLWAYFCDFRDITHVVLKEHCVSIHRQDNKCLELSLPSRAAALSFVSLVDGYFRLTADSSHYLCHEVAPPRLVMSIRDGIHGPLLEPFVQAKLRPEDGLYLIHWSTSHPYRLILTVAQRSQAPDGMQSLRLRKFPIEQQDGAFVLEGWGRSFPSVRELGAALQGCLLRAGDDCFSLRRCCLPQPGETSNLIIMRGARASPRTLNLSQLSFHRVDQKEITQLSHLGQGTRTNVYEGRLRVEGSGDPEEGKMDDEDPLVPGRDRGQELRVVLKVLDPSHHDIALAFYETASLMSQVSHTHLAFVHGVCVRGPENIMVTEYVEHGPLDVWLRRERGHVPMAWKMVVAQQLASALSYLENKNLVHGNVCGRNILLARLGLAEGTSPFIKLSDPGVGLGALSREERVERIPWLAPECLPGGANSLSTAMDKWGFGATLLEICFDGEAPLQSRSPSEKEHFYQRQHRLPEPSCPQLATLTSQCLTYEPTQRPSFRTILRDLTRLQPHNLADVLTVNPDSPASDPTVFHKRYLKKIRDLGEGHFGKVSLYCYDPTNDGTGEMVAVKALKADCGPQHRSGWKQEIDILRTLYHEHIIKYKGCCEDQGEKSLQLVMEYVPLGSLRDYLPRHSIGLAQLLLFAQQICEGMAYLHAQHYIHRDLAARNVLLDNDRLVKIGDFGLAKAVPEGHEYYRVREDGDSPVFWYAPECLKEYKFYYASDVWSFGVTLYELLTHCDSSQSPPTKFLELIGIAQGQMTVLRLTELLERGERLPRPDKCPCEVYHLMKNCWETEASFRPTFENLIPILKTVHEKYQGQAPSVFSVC
Sequence of CDK6 (Q00534 whole entry): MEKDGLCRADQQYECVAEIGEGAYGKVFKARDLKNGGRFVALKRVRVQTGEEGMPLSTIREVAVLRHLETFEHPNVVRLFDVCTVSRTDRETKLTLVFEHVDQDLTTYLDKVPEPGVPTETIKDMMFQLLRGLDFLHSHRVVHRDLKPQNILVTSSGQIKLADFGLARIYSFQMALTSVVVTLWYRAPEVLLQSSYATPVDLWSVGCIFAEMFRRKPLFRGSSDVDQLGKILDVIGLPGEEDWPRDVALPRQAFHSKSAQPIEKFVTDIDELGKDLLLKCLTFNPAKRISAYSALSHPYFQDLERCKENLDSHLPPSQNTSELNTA
Sequence of CDK6 (P30281 whole entry partner): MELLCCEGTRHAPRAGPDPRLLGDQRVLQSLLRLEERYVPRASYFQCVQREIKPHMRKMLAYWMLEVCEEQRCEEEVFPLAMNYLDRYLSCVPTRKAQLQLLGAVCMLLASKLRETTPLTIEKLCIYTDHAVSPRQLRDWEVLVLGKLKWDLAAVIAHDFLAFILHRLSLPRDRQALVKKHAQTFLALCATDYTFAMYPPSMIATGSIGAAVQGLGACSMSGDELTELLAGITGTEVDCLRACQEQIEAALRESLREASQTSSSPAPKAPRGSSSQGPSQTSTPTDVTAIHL
Sequence of PDGFRβ (P09619 33-1106, species assumed): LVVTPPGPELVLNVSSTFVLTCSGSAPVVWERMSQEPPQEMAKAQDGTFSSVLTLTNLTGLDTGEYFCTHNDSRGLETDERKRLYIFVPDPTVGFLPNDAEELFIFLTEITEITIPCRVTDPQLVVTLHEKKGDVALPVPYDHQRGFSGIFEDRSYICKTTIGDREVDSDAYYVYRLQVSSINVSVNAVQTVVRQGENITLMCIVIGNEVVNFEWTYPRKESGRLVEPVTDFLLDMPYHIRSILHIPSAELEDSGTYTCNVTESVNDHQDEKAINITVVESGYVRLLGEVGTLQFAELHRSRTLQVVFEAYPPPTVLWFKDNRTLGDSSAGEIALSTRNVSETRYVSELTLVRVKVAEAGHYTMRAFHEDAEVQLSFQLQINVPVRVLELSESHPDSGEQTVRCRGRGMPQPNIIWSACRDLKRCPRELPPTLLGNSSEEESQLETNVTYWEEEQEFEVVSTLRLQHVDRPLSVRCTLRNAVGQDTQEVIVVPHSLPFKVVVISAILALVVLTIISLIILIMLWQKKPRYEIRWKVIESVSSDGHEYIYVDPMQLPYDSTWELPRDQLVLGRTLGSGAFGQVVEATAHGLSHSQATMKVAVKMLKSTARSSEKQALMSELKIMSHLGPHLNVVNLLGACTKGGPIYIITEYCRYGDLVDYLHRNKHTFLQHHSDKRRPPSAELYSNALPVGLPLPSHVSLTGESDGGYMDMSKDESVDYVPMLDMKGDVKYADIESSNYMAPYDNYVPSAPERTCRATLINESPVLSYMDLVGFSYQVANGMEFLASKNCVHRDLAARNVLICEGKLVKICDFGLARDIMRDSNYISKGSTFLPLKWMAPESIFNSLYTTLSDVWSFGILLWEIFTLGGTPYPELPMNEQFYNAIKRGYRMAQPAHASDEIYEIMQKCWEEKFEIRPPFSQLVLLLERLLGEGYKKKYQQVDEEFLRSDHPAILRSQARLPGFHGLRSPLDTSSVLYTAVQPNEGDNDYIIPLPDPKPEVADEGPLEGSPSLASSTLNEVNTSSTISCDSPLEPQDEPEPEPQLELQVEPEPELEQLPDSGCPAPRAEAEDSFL
Sequence of Chk1 (O14757 whole entry): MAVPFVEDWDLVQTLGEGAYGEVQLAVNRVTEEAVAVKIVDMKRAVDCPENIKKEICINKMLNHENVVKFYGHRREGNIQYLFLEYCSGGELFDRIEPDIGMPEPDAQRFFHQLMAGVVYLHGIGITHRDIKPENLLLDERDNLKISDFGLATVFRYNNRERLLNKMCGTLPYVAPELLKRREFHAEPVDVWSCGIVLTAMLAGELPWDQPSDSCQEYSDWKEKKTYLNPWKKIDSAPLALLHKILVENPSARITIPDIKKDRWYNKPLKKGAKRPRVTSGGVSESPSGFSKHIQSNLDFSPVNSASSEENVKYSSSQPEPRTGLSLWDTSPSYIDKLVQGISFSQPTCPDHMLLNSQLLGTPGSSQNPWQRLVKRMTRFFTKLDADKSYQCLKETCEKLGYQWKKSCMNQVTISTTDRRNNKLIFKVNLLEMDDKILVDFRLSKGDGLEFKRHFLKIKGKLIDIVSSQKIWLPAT
Sequence of ASK1 (Q99683 whole entry): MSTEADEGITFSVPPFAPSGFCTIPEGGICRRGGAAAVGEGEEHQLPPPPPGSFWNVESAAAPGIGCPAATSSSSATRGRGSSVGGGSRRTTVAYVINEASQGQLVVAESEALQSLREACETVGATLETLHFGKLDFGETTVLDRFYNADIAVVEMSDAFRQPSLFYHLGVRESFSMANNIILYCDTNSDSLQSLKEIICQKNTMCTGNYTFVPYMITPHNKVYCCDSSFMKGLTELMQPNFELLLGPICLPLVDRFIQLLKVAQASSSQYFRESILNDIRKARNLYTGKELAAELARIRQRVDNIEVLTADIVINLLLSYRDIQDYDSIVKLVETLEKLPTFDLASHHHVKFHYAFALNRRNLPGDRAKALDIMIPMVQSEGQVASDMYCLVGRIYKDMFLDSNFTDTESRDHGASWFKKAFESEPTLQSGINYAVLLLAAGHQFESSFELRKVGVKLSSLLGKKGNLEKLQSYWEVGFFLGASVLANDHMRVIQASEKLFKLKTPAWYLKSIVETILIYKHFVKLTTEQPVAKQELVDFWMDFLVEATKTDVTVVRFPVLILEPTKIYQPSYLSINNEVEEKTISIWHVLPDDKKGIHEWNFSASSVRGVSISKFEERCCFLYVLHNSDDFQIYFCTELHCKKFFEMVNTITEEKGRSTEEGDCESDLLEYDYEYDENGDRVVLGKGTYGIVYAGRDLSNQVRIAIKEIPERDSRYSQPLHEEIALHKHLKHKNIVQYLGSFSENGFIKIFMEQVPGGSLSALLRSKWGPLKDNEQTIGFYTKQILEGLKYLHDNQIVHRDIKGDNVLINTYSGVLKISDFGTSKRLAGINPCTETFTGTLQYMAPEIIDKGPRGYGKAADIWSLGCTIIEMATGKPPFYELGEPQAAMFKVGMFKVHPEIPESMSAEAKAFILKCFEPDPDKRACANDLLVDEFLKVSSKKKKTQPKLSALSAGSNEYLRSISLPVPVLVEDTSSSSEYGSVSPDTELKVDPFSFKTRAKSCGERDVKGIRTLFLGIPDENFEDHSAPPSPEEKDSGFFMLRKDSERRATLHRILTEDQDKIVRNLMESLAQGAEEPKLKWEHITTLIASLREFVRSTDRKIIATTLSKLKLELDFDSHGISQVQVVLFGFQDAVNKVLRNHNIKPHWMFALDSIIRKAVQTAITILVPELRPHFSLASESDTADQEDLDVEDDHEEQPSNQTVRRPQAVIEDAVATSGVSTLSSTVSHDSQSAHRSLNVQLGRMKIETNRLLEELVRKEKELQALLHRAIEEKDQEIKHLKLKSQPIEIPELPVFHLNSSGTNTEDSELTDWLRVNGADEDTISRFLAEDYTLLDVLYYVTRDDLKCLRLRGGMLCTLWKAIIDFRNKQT
Sequence of CK1α1 (P48729 whole entry): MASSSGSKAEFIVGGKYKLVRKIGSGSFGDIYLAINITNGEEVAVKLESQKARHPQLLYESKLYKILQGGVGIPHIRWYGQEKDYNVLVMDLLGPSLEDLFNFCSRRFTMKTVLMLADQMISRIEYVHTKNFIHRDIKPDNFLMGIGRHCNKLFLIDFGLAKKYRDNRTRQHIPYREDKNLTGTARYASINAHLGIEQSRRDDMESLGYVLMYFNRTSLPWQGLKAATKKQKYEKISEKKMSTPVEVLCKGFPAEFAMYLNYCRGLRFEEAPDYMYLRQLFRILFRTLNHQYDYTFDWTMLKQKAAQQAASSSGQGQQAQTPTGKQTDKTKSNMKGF

For `CN1C/C=C/CCOc2cccc(c2)-c2ccnc(n2)Nc2cccc(c2)C1` [TG02, (16E)-14-methyl-20-oxa-5,7,14,27-tetraazatetracyclo[19.3.1.12,6.18,12]heptacosa-1(25),2(27),3,5,8(26),9,11,16,21,23-decaene], the “apoptosis (Annexin-PI)” value [1] was “significantly higher rates of apoptosis; also recorded: increased populations in early apoptosis”, the “viable cells (Annexin negative, PI negative)” value [1] was “decreased viable cells” and the “phospho MYC (S62) and total MYC” value [2] was “reduced phospho and total MYC”. The “MYCN protein and transcript levels” value (MYCN in DIPG-13p cells) was “MYCN protein and transcriptional down-regulation”, the IC50 (TYK2) was 0.014 µM and the IC50 (Fyn) was 0.015 µM. The IC50 (JAK2) was 0.019 µM, the IC50 (FLT3) was 0.019 µM and the “inhibition at 100 nm” value (ASK1) was “less than 50%”. For the same compound, the “inhibition at 100 nm” value (CDK6) was “less than 50%”, the “inhibition at 100 nm” value (Chk1) was “less than 50%” and the “inhibition at 100 nm” value (CK1α1) was “less than 50%”. For the same compound, the “inhibition at 100 nm” value [3] was “less than 50%”, the “inhibition at 100 nm” value (DYRKIB) was “less than 50%” and the “inhibition at 100 nm” value (IKK-β) was “less than 50%”. For the same compound, the “inhibition at 100 nm” value (InsR) was “less than 50%”, the “inhibition at 100 nm” value (PAK2) was “less than 50%” and the “inhibition at 100 nm” value (PAK3) was “less than 50%”. For the same compound, the “inhibition at 100 nm” value (PDGFRβ) was “less than 50%”, the “inhibition at 100 nm” value (PDK1) was “less than 50%” and the “inhibition at 100 nm” value (PKCε) was “less than 50%”. The “inhibition at 100 nm” value (PLK3) was “less than 50%”, the “inhibition at 100 nm” value (TLK2) was “less than 50%” and the “substrate of CYP1A2” value (CYP1A2) was “substrate”. The “dose-limiting toxicities (DLTs), DD regimen” value ([4]; human, in vivo) was “grade 3 diarrhea (n=1) at 200 mg of TG02, and grade 4 neutropenia and grade 3 increase in ALT (n=1) at 250 mg of TG02”, the “dose-limiting toxicities (DLTs), MN regimen” value ([4]; human, in vivo) was “grade 4 lymphopenia (n=2) and increase in ALT (n=1) at 250 mg of TG02” and the “MTD, metronomic (MN) temozolomide regimen” value ([4]; temozolomide 50 mg/m^2) was 200 mg. The “MTD, dose-dense (DD) temozolomide regimen” value ([4]; temozolomide 125 m/m^2 per day 7 days on/7 days off) was 250 mg, the “most clinically significant toxicities, TG02 combined with RT” value ([5]; human, in vivo) was “grade 2 nausea and vomiting and grade 3 neutropenia” and the “significant drug-related toxicities, single agent” value ([5]; twice a week in older adults) was “increased liver function tests and grade 3 neutropenia”. The MTD as single-agent ([5]; twice a week in older adults, probably) was about 150 mg per dose.

Reference: US11173160B2 (UNIVERSITY OF PITTSBURGH—OF THE COMMONWEALTH SYSTEM OF …, priority 2019, dated 2021)
